Assay results: US20050215620A1, “Method of treating amyloid beta precursor disorders” (Andrx Labs, LLC, priority 1999, published 2005)

How the values were obtained:
Aβ peptides = assay: Extracellular and intracellular [35S]-labeled Aβ peptides in APP-expressing H4, MDCK and CHO cells (pulse-chase, immunoprecipitation, autoradiography); format: cell-based, human; canine; Chinese hamster (cells expressing human APP)
Protocol: (§1) The three cell lines utilized were: Chinese Hamster Ovary (CHO) cells expressing the 751 amino acid form of APP; Mabin-Darby Canine Kidney (MDCK) cells which overexpress the 695 amino acid form of APP; Human neuroglioma (H4) cells overexpressing the 695 form of human APP. All cells were prepared by the stable introduction of a cDNA coding for human APP. All cell lines were maintained in DMEM containing 10% FBS and antibiotics.
In order to characterize the effects of cholesterol depletion, cell cultures of each cell line were cultured on six-well plates for 4 days in DMEM containing 10% FCLPDS, which lipid depleted medium reduced the external source of cholesterol, in the presence of lovastatin acid (LA) or absence of LA.
For measurement of APP processing and Aβ peptide formation, medium was removed and the cells were washed once with PBS and then incubated for 2 hours in DMEM containing 1 mCi/ml [^35S] Methionine. After this “pulse” period, the cells were either (1) lysed to measure the total labeled APPi and APPm at time zero, or (2) the cells were incubated for 2 hours in fresh, unlabeled complete medium (“chase”) and then lysed. Then the cell supernatants and lysates were treated with the appropriate antibody to calculate the amounts of APPi, APPm, APPs, and Aβ peptides.
To measure Aβ peptides, or to measure APPs, which is the secreted carboxyl-terminal truncated form, cell supernatants were incubated with antibody 6E10, which recognizes the first 15 amino acids of the Aβ peptide that correspond to the COOH-terminal amino acids of APPs . See Buxbaum, J. D., et al. (1994) Proc Natl Acad Sci USA. 91:4489-93, which is incorporated herein by reference.
The incubations with antibody 6E10 or antibody 369 were performed at 4° C. for 75 minutes followed by a 45 minute incubation at 4° C. with either agarose-linked anti-mouse IgG for antibody 6E10 or protein A sepharose for antibody 369. The beads were then washed three times for 10 minutes and then run on either a 10-20% Tris-Tricine Gel for APPs and Aβ peptides or an 8% polyacrylamide gel for cell-associated APR The gels were dried and exposed to a Phosphor Imager® screen (STORM 860, Molecular Dynamics) and exposed for a minimum of two days. The protein bands were visualized on a STORM 860 Phosphor Imager® (Molecular Dynamics) and quantitated using ImageQuant® (Molecular Dynamics). […]
To determine whether a decrease in cholesterol is associated with a change in the amount of extracellular Aβ peptides, the H4, MDCK, and CHO cells, expressing human APPm were incubated for 4 days in the presence or absence of 0.5 μM LA. […] Relative levels of extracellular Aβ peptides were determined under each condition by quantitative Phosphorlmager autoradiography. […]

APP processing [1] = assay: APP processing (APPs formation, APPm levels) in H4 cells; format: cell-based, human; details: 0.5 μM LA
Protocol: as §1
For measurement of APP processing and Aβ peptide formation, medium was removed and the cells were washed once with PBS and then incubated for 2 hours in DMEM containing 1 mCi/ml [^35S] Methionine. […]
The incubations with antibody 6E10 or antibody 369 were performed at 4° C. for 75 minutes followed by a 45 minute incubation at 4° C. with either agarose-linked anti-mouse IgG for antibody 6E10 or protein A sepharose for antibody 369. […] The protein bands were visualized on a STORM 860 Phosphor Imager® (Molecular Dynamics) and quantitated using ImageQuant® (Molecular Dynamics).
To determine whether cholesterol depletion affects other aspects of APP processing, H4 cells were incubated for four days in the presence or absence of 0.5 μM LA, and subjected to metabolic labeling. The levels of [^35S]-labeled APPi and APPm were determined by irnmunoprecipitation from cell lysates with an antibody against the COOH-terminal of APP, followed by quantitative autoradiography. […]

APP processing [2] = assay: Extracellular APPs, extracellular Aβ peptides and total APPm in CHO cells; format: cell-based, Chinese hamster (cells expressing human APP)
Protocol: The three cell lines utilized were: Chinese Hamster Ovary (CHO) cells expressing the 751 amino acid form of APP; Mabin-Darby Canine Kidney (MDCK) cells which overexpress the 695 amino acid form of APP; Human neuroglioma (H4) cells overexpressing the 695 form of human APP. All cells were prepared by the stable introduction of a cDNA coding for human APP. All cell lines were maintained in DMEM containing 10% FBS and antibiotics. […] After this “pulse” period, the cells were either (1) lysed to measure the total labeled APPi and APPm at time zero, or (2) the cells were incubated for 2 hours in fresh, unlabeled complete medium (“chase”) and then lysed. Then the cell supernatants and lysates were treated with the appropriate antibody to calculate the amounts of […], and Aβ peptides. To measure cell-associated, full-length APPi and APPm, or to measure carboxyl-terminal fragments of APP, cell lysates were incubated with antibody 369 which recognizes the carboxyl-terminus of APP. See Buxbaum, J. D., et al. (1990) Proc Natl Acad Sci USA 87:6003-6, which is incorporated herein by reference. […] See Buxbaum, J. D., et al. (1994) Proc Natl Acad Sci USA. 91:4489-93, which is incorporated herein by reference. The incubations with antibody 6E10 or antibody 369 were performed at 4° C. for 75 minutes followed by a 45 minute incubation at 4° C. with either agarose-linked anti-mouse IgG for antibody 6E10 or protein A sepharose for antibody 369. […] The protein bands were visualized on a STORM 860 Phosphor Imager® (Molecular Dynamics) and quantitated using ImageQuant® (Molecular Dynamics). […] Specifically, it was determined that treatment of CHO cells with 0.5 μM LA reduced the amount of extracellular APPs by about 30% of the amount calculated for the control and reduced the amount of extracellular Aβ peptides by about 70% of the amount calculated for the control when no LA was present. The amount of extracellular Aβ peptides and the amount of extracellular APPs were normalized to the amount of total APP found in the cell at the end of cell labeling as described above. […]

[3] = CHO cells, 0.5 μM LA, normalized to total APP

## CC[C@H](C)C(=O)O[C@H]1C[C@@H](C)C=C2C=C[C@H](C)[C@H](CC[C@@H](O)C[C@@H](O)CC(=O)O)[C@H]21 [LA, lovastatin acid]
Aβ peptides; 0.5 μM LA, 4 days, lipid depleted medium, H4, MDCK and CHO cells
  decrease in amounts of extracellular Aβ peptides as compared to the untreated cells: 40-60%
Aβ peptides; each cell type, various concentrations of LA
  LA concentration sufficient to significantly (p<0.001) decrease the amount of extracellular Aβ peptides: ≥ 0.05 µM
Aβ peptides; presence of 0.5 μM LA
  levels of intracellular Aβ peptides in cell lysates: No detectable levels
Aβ peptides; printed as 0.5 μM LA
  reduction of extracellular Aβ peptide levels (weaker effect): < 20%
APP processing [1]
  effects on maturation, levels of [35S]-labeled APPm (FIG. 6): not sufficient to account for the decrease in Aβ peptide levels
APP processing [1]; H4 cells, four days
  [35S]-labeled APPs formation as compared to control cells (FIG. 5): modest decrease
APP processing [2]; CHO cells treated with 0.5 μM LA (control 3.2×10^6)
  level of total APPm: 3.4×10^6 arbitrary units
APP processing [2]; [3]
  reduction of the amount of extracellular APPs relative to control: about 30%
  reduction of the amount of extracellular Aβ peptides relative to control: about 70%
